# Test results: patent US11401270B2, “Alcoxyamino derivatives for treating pain and pain related conditions” (ESTEVE PHARMACEUTICALS, S.A., priority 2017, dated 2022)
# Like-named read-outs stand apart in the source and are kept apart here.
# Target: Human α2δ-1 subunit of Cav2.2 calcium channel (Homo sapiens (Human), UniProt P54289)
# Assay: Binding Assay to Human α2δ-1 Subunit of Cav2.2 Calcium Channel
# Settings: human α2δ-1 enriched membranes, 15 nM [3H]-Gabapentin, read-out: Ki(nM) alpha2delta Hum
# Method: Binding Assay to Human α2δ-1 Subunit of Cav2.2 Calcium Channel.
# NSB (non specific binding) was measured by adding 10 μM pregabalin. The binding of the test compound was measured in five different concentrations. After 60 min incubation at 27° C., binding reaction was terminated by filtering through Multiscreen GF/C (Millipore) presoaked in 0.5% polyethyleneimine in Vacuum Manifold Station, followed by 3 washes with ice-cold filtration buffer containing 50 mM Tris-HCl, pH 7.4.
# Filter plates were dried at 60° C. for 1 hour and 30 μl of scintillation cocktail were added to each well before radioactivity reading.
# Chain of Human α2δ-1 subunit of Cav2.2 calcium channel (P54289 25-1103): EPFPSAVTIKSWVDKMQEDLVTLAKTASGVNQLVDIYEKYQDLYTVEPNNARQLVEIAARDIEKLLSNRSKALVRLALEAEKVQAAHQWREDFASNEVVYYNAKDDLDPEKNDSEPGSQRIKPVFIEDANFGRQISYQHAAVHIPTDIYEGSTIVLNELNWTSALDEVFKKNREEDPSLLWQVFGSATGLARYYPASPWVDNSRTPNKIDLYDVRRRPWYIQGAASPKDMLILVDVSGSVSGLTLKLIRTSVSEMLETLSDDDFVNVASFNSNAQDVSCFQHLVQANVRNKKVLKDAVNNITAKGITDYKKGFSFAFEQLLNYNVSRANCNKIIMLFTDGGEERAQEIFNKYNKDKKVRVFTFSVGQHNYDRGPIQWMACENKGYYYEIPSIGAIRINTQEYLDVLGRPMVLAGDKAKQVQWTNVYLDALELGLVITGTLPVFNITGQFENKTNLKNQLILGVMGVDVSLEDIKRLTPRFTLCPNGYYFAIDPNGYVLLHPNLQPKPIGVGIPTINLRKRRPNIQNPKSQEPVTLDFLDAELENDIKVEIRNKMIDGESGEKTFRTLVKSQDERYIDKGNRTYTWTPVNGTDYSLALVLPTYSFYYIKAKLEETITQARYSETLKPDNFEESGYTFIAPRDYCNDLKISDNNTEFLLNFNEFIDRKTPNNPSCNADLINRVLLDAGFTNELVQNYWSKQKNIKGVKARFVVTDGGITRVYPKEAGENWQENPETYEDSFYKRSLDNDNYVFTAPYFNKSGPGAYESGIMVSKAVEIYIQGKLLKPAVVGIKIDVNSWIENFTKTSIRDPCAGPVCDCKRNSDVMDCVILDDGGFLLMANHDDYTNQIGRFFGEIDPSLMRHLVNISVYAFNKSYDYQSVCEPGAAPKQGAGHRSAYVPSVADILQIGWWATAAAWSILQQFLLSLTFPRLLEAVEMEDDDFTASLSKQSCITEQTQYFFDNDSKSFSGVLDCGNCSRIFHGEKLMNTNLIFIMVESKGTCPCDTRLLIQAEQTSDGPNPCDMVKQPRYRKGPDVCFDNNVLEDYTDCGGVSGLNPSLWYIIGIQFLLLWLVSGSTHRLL
Ki (Table 1),"Ki (Table 2, dual compounds)",Compound
100 to 500 nM,–,"CNCCC(Oc1cccc(N2CCN(C)c3cnccc3C2=O)c1)c1cccs1 (stereo not drawn) [Example 73, 1-Methyl-4-(3-(3-(methylamino)-1-(thiophen-2-yl)propoxy)phenyl)-1.2,3,4-tetrahydro-5H-pyrido[3,4-e][1,4]diazepin-5-one]"
> 3000 nM,–,"CNCCC(Oc1cccc(N2CCN(C)c3ccccc3C2)c1)c1cccs1 (stereo not drawn) [Example 9, N-methyl-3-(3-(1-methyl-1,2,3,5-tetrahydro-4H-benzo[e][1,4]diazepin-4-yl)phenoxy)-3-(thiophen-2-yl)propan-1-amine]"
500 to 3000 nM,–,"CNCC[C@@H](Oc1ccc(CN2CCN(C)c3ncccc3C2=O)c(F)c1)c1cccc(F)c1 [Example 135, (R)-4-(2-fluoro-4-(1-(3-fiuorophenyl)-3-(methylamino)propoxy)benzyl)-1-methyl-1,2,3,4-tetrahydro-5H-pyrido[2,3-e][1,4]diazepin-5-one]"
> 3000 nM,–,"CNCCC(Oc1cccc(N2CCCCCC2=O)c1)c1cccs1 (stereo not drawn) [Example 17, 1-(3-(3-(Methylamino)-1-(thiophen-2-yl)propoxy)phenyl)azepan-2-one]"
< 100 nM,–,"CNCC[C@H](Oc1ccc(CN2CCCn3nc(C)cc3C2=O)c(C)c1)c1cccs1 [Example 124, (S)-2-methyl-5-(2-methyl-4-(3-(methylamino)-1-(thiophen-2-yl)propoxy)benzyl)-5,6,7,8-tetrahydro-4H-pyrazolo[1,5-a][1,4]diazepin-4-one]"
100 to 500 nM,–,"CNCC[C@@H](Oc1cccc(N2CCN(C)c3nc(C)ccc3C2=O)c1)c1ccsc1 [Example 79, (R)-1,8-dimethyl-4-(3-(3-(methylamino)-1-(thiophen-3-yl)propoxy)phenyl)-1,2,3,4-tetrahydro-5H-pyrido[2,3-e][1,4]diazepin-5-one]"
500 to 3000 nM,–,"CNCCC(Oc1cccc(N2CCCN(C)CC2)c1)c1ccccc1 (stereo not drawn) [Example 5, N-methyl-3-(3-(4-methyl-1,4-diazepan-1-yl)phenoxy)-3-phenylpropan-1-amine]"
> 3000 nM,–,"CNCC[C@H](OCc1cccc(N2C[C@@H]3CCCN3c3ccccc3C2=O)c1)c1ccccc1 [Example 30, (S)-5-(3-(((S)-3-(methylamino)-1-phenylpropoxy)methyl)phenyl)-1,2,3,3a,4,5-hexahydro-6H-benzo[f]pyrrolo[1,2-a][1,4]diazepin-6-one]"
500 to 3000 nM,–,"CNCC[C@H](OCc1cccc(N2CCN(C)c3ccccc3C2=O)c1)c1cccc(F)c1 [Example 42, (S)-4-(3-((1-(3-fluorophenyl)-3-(methylamino)propoxy)methyl)phenyl)methyl-1 2,3,4-tetrahydro-5H-benzo[e][1,4]diazepin-5-one]"
500 to 3000 nM,–,"CNCCC(OCc1cccc(N2CCN(C)c3ccccc3C2=O)c1)c1ccccc1 (stereo not drawn) [Example 38, 1-Methyl-4-(3-((3-(methylamino)-1-phenylpropoxy)methyl)phenyl)-1,2,3,4-tetrahydro-5H-benzo[e][1,4]diazepin-5-one]"
500 to 3000 nM,–,"CNCCC(OCc1cccc(N2CCN(C)c3cnccc3C2=O)c1)c1ccccc1 (stereo not drawn) [Example 28, 1-Methyl-4-(3-((3-(methylamino)-1-phenylpropoxy)methyl)phenyl)-1,2,3,4-tetrahydro-5H-pyrido[3,4-e][1,4]diazepin-5-one]"
> 3000 nM,–,"CNCCC(OCc1cccc(CN2CCN(C)c3ccccc3C2=O)c1)c1ccccc1 (stereo not drawn) [Example 89, 1-Methyl-4-(3-((3-(methylamino)-1-phenylpropoxy)methyl)benzyl)-1,2,3,4-tetrahydro-5H-benzo[e][1,4]diazepin-5-one]"
500 to 3000 nM,–,"CNCC[C@@H](OCc1cccc(N2CCN(C)c3ccccc3C2=O)c1)c1ccccc1 [Example 47, (R)-1-methyl-4-(3-((3-(methylamino)-1-phenylpropoxy)methyl)phenyl)-1,2,3,4-tetrahydro-5H-benzo[e][1,4]diazepin-5-one]"
500 to 3000 nM,500 to 3000 nM,"CNCC[C@H](Oc1ccc(CN2CCCn3cccc3C2=O)cc1)c1cccs1 [Example 105, (S)-2-(4-(3-(methylamino)-1-(thiophen-2-yl)propoxy)benzyl)-2,3,4,5-tetrahydro-1H-pyrrolo[1,2-a][1,4]diazepin-1-one]"
500 to 3000 nM,–,"CNCCC(OCc1cccc(N2CCCN(C)CC2=O)c1)c1ccccc1 (stereo not drawn) [Example 36, 4-Methyl-1-(3-((3-(methylamino)-1-phenylpropoxy)methyl)phenyl)-1,4-diazepan-2-one]"
> 3000 nM,–,"CNCCC(OCc1ccc(N2CCN(C)c3ccccc3C2=O)cc1)c1ccccc1 (stereo not drawn) [Example 46, 1-Methyl-4-(4-((3-(methylamino)-1-phenylpropoxy)methyl)phenyl)-1,2,3,4-tetrahydro-5H-benzo[e][1,4]diazepin-5-one]"
> 3000 nM,–,"CNCCC(Oc1cccc(N2CCN(C)CCC2=O)c1)c1ccccc1 (stereo not drawn) [Example 32, 1-Methyl-4-(3-(3-(methylamino)-1-phenylpropoxy)phenyl)-1,4-diazepan-5-one]"
100 to 500 nM,–,"CNCCC(Oc1cccc(N2CCCN(C)CC2)c1)c1cccs1 (stereo not drawn) [Example 8, N-methyl-3-(3-(4-methyl-1,4-diazepan-1-yl)phenoxy)-3-(thiophen-2-yl)propan-1-amine]"

Ki (Table 1),"Ki (Table 2, dual compounds)",Compound
500 to 3000 nM,–,"CCNC1CCCN(c2cccc(O[C@@H](CCNC)c3cccs3)c2)C(=O)C1 (single isomer, unassigned) [Example 118b]"
> 3000 nM,–,"CNCCC(Oc1ccc(CN2CCN(C)c3ccccc3C2=O)cc1)c1ccccc1 (stereo not drawn) [Example 112, 1-Methyl-4-(4-(3-(methylamino)-1-phenylpropoxy)benzyl)-1,2,3,4-tetrahydro-5H-benzo[e][1,4]diazepin-5-one]"
500 to 3000 nM,–,"CNCCC(OCc1cccc(N2CCN(C)c3cccnc3C2=O)c1)c1ccccc1 (stereo not drawn) [Example 26, 1-Methyl-4-(3-((3-(methylamino)-1-phenylpropoxy)methyl)phenyl)-1,2,3,4-tetrahydro-5H-pyrido[3,2-e][1,4]diazepin-5-one]"
> 3000 nM,–,"CNCC(OCc1ccc(CN2CCN(C)c3ccccc3C2=O)cc1)c1ccccc1 (stereo not drawn) [Example 109, 1-Methyl-4-(4-((2-(methylamino)-1-phenylethoxy)methyl)benzyl)-1,2,3,4-tetrahydro-5H-benzo[e][1,4]diazepin-5-one]"
> 3000 nM,–,"CCNC[C@H]1CN(C)CCN(c2cccc(O[C@@H](CCNC)c3ccccc3)c2)C1=O [Example 24, (S)-6-((ethylamino)methyl)-1-methyl-4-(3-((S)-3-(methylamino)-1-phenylpropoxy)phenyl)-1,4-diazepan-5-one]"
> 3000 nM,–,"CNCCC(Oc1ccc(CN2CCCN(C)CC2)cc1)c1cccs1 (stereo not drawn) [Example 102, N-methyl-3-(4-((4-methyl-1,4-diazepan-1-yl)methyl)phenoxy)-3-(thiophen-2-yl)propan-1-amine]"
500 to 3000 nM,–,"CNCCC(OCc1cccc(N2CCN(C)c3nc(C)ccc3C2=O)c1)c1ccccc1 (stereo not drawn) [Example 48, 1,8-Dimethyl-4-(3-((3-(methylamino)-1-phenylpropoxy)methyl)phenyl)-1,2,3,4-tetrahydro-5H-pyrido[2,3-e][1,4]diazepin-5-one]"
500 to 3000 nM,–,"CNCCC(Oc1cccc(N2CCNCCC2=O)c1)c1cccs1 (stereo not drawn) [Example 59, 4-(3-(3-(Methylamino)-1-(thiophen-2-yl)propoxy)phenyl)-1,4-diazepan-5-one]"
> 3000 nM,–,"CNCCC(Oc1cccc(N2CCCCCC2=O)c1)c1ccccc1 (stereo not drawn) [Example 33, 1-(3-(3-(Methylamino)-1-phenylpropoxy)phenyl)azapan-2-one]"
500 to 3000 nM,–,"CNCCC(OCc1cccc(N2CCCCCC2=O)c1)c1cccs1 (stereo not drawn) [Example 16, 1-(3-((3-(Methylamino)-1-(thiophen-2-yl)propoxy)methyl)phenyl)azepan-2-one]"
500 to 3000 nM,–,"CNCCC(Oc1cccc(C(=O)N2CCN(C)c3ccccc3C2)c1)c1cccs1 (stereo not drawn) [Example 4, (1-Methyl-1,2,3,5-tetrahydro-4H-benzo[e][1,4]diazepin-4-yl)(3-(3-(methylamino)-1-(thiophen-2-yl)propoxy)phenyl)methanone]"
> 3000 nM,–,"CNCCC(Oc1cccc(N2CCCN(C)CC2=O)c1)c1cccs1 (stereo not drawn) [Example 52, 4-Methyl-1-(3-(3-(methylamino)-1-(thiophen-2-yl)procoxy)phenyl)-1,4-diazepan-2-one]"
500 to 3000 nM,–,"CN1CCN(c2cccc(COC(CCNCCF)c3ccccc3)c2)C(=O)c2ccccc21 (stereo not drawn) [Example 44, 4-(3-((3-((2-Fluoroethyl)amino)-1-phenylpropoxy)methyl)phenyl)-1-methyl-1,2,3,4-tetrahydro-5H-benzo[e][1,4]diazepin-5-one]"
< 100 nM,–,"CNCC[C@H](Oc1ccc(CN2CCN(C)c3ncc(F)cc3C2=O)c(C)c1)c1cccs1 [Example 125, (S)-7-fluoro-1-methyl-4-(2-methyl-4-(3-(methylamino)-1-(thiophen-2-yl)propoxy)benzyl)-1,2,3,4-tetrahydro-5H-pyrido[2,3-e][1,4]diazepin-5-one]"
500 to 3000 nM,–,"CNCCC(OCc1cccc(N2CCCCCC2=O)c1)c1ccccc1 (stereo not drawn) [Example 35, 1-(3-((3-(Methylamino)-1-phenylpropoxy)methyl)phenyl)azepan-2-one]"
> 3000 nM,–,"CNCC[C@H](Oc1ccc(CN2CCN(C)c3c(ccnc3OC)C2=O)c(F)c1)c1ccccc1 [Example 146, (S)-4-(2-fluoro-4-(3-(methylamino)-1-phenylpropoxy)benzyl)-9-methoxy-1-methyl-1,2,3,4-tetrahydro-5H-pyrido[3,4-e][1,4]diazepin-5-one]"
> 3000 nM,–,"CNCC[C@H](OCc1cccc(N2CCN(C)c3ccccc3C2=O)c1)c1cccs1 [Example 15, (S)-1-methyl-4-(3-((3-(methylamino)-1-(thiophen-2-yl)propoxy)methyl)phenyl)-1,2,3,4-tetrahydro-5H-benzo[e][1,4]diazepin-5-one]"
